What was measured:
Format in all cases: biochemical
BTK C481S = target: T1, BTK C481S (Homo sapiens, UniProt Q06187, C481S); experiment: Kinase activity inhibition assay (HTRF TK Kit)
T1 construct: purchased Carna 08-547
In short: (§1)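 Read-out: 665/620 nm HTRF ratio after 1 h room-temperature detection with streptavidin-XL665 and TK antibody-cryptate. Kinase reactions (compound, substrate/ATP, enzyme, assembled on ice) ran at room temperature beforehand. Inhibition normalised to blank and positive controls, IC50 by variable-slope sigmoidal fit.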

BTK T474I = target: T2, BTK T474I (Homo sapiens, UniProt Q06187, T474I); experiment: Kinase activity inhibition assay (HTRF TK Kit)
T2 construct: purchased SignalChem B10-12HH
In short: as §1

BTK kinase = target: T3, BTK kinase (Homo sapiens, UniProt Q06187); experiment: Kinase activity inhibition assay (HTRF TK Kit)
T3 construct: purchased Invitrogen PV3587
In short: as §1

EGFR = target: T4, EGFR (Homo sapiens, UniProt P00533); experiment: Kinase activity inhibition assay (HTRF TK Kit), selectivity
T4 construct: purchased Carna 08-115
In short: as §1

ITK = target: T5, ITK (Homo sapiens, UniProt Q08881); experiment: as above
T5 construct: purchased Carna 08-181
T5 sequence (Q08881 1-620): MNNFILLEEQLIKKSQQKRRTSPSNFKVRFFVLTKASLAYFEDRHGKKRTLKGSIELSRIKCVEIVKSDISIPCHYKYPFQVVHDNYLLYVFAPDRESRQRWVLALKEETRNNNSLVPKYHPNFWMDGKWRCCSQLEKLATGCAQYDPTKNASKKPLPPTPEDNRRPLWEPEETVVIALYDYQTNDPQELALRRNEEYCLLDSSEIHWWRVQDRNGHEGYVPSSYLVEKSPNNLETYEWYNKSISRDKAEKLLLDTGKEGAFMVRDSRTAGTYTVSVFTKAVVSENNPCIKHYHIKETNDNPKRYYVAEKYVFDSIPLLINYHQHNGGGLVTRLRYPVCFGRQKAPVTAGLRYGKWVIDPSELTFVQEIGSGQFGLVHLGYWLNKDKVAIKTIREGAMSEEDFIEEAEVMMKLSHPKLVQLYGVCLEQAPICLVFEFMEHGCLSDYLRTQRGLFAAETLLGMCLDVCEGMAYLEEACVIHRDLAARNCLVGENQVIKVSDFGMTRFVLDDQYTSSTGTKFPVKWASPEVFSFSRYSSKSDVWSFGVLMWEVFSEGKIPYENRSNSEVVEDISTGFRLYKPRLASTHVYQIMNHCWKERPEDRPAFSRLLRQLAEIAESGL
In short: as §1

TEC = target: T6, TEC (Homo sapiens, UniProt P42680); experiment: as above
T6 construct: purchased Carna 08-182
T6 sequence (P42680 1-631): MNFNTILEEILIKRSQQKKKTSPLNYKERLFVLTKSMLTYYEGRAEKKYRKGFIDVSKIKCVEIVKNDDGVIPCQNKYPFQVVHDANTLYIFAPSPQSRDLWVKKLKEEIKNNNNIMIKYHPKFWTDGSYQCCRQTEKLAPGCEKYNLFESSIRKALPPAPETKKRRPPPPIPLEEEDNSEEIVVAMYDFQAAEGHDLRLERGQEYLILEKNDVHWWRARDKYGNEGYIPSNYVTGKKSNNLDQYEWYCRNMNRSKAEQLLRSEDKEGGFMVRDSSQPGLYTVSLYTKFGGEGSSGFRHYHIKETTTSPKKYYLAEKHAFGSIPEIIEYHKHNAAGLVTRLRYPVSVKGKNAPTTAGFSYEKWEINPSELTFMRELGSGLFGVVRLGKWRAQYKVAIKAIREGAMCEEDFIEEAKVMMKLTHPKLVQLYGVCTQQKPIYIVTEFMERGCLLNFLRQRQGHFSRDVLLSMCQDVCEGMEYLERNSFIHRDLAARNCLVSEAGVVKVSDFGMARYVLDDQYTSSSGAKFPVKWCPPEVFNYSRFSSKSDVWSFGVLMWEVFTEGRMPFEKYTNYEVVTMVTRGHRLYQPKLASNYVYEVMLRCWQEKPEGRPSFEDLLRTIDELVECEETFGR
In short: as §1

T2 sequence (Q06187 whole entry T474I): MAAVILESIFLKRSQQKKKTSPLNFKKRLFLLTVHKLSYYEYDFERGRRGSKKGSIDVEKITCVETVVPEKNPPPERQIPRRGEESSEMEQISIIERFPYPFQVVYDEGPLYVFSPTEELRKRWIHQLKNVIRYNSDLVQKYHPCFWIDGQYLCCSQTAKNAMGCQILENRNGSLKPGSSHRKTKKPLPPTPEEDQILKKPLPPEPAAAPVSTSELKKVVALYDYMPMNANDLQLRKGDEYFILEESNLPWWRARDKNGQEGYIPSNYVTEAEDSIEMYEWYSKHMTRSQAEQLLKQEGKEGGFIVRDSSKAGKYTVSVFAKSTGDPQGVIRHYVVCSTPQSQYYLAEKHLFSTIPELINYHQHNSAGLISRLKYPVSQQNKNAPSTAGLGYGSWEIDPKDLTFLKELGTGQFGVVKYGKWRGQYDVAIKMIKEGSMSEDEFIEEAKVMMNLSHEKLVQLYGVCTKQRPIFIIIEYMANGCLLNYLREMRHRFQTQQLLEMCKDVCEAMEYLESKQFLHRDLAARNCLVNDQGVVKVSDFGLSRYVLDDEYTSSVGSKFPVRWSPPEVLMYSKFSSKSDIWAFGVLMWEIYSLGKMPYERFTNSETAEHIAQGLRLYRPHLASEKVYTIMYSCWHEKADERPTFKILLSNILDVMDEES
T3 sequence (Q06187 whole entry): as the sequence (Q06187 whole entry T474I) above, with I474T counted along it
T1 sequence (Q06187 whole entry C481S): as the sequence (Q06187 whole entry T474I) above, with I474T, C481S counted along it

Compound	IC50 (BTK C481S) [nM]	IC50 (BTK T474I) [nM]	IC50 (BTK kinase) [nM]	IC50 (EGFR) [nM]	IC50 (ITK) [nM]	IC50 (TEC) [nM]
COc1ccc(F)cc1C(=O)NCc1ccc(-c2ncc(-c3ccc4c(n3)nc3n4CCOC3)c3[nH]nc(N)c23)cc1 [Example 102, N-(4-(3-amino-7-(6,7-dihydro-9H-pyrido[2',3':4,5]imidazo[2,1-c][1,4]oxazin-2-yl)-1H-pyrazolo[4,3-c]pyridin-4-yl)benzyl)-5-fluoro-2-methoxybenzamide]	5 to 50	> 500	5 to 50	50 to 500	> 500	> 500
COc1ccc(F)cc1C(=O)NCc1ccc(-c2ncc(-c3ccc4c(n3)nc3n4C(C)COC3)c3[nH]nc(N)c23)cc1 (stereo not drawn) [Example 103, N-(4-(3-amino-7-(6-methyl-6,7-dihydro-9H-pyrido[2',3':4,5]imidazo[2,1-c][1,4]oxazin-2-yl)-1H-pyrazolo[4,3-c]pyridin-4-yl)benzyl)-5-fluoro-2-methoxybenzamide]	5 to 50	50 to 500	5 to 50	50 to 500	> 500	> 500
COc1ccc(F)cc1C(=O)NCc1ccc(-c2ncc(-c3cccnc3)c3[nH]nc(N)c23)cc1 [Example 105, N-(4-(3-amino-7-(pyridin-3-yl)-1H-pyrazolo[4,3-c]pyridin-4-yl)benzyl)-5-fluoro-2-methoxybenzamide]	50 to 500	> 500	5 to 50	> 500	> 500	> 500
COc1ccc(F)cc1C(=O)NCc1ccc(-c2ncc(-c3ccncc3)c3[nH]nc(N)c23)cc1 [Example 106, N-(4-(3-amino-7-(pyridin-4-yl)-1H-pyrazolo[4,3-c]pyridin-4-yl)benzyl)-5-fluoro-2-methoxybenzamide]	50 to 500	> 500	50 to 500	> 500	> 500	> 500
COc1ccc(F)cc1C(=O)NCc1ccc(-c2nc(C3CCOCC3)cc3[nH]nc(N)c23)cc1 [Example 115, N-(4-(3-amino-6-(tetrahydro-2H-pyran-4-yl)-1H-pyrazolo[4,3-c]pyridin-4-yl)benzyl)-5-fluoro-2-methoxybenzamide]	1 to 5	50 to 500	5 to 50	50 to 500	> 500	50 to 500
COc1ccc(F)cc1C(=O)NCc1ccc(-c2nc([C@H]3CC[C@H](CO)CC3)cc3[nH]nc(N)c23)cc1 [Example 117, N-(4-(3-amino-6-((1r,4r)-4-(hydroxymethyl)cyclohexyl)-1H-pyrazolo[4,3-c]pyridin-4-yl)benzyl)-5-fluoro-2-methoxybenzamide]	1 to 5	50 to 500	1 to 5	5 to 50	> 500	50 to 500
N-(4-(3-amino-7-(1-(difluoromethyl)-1H-pyrazol-3-yl)-1H-pyrazolo[4,3-c]pyridin-4-yl)benzyl)-5-fluoro-2-methoxybenzamide [Example 29]	≤ 1	5 to 50	≤ 1	5 to 50	50 to 500	5 to 50

— patent publication EP4741392A1, “1H-PYRAZOLO[4,3-C]PYRIDINE COMPOUND, AND COMPOSITION THEREOF AND USE THEREOF” (Shenzhen TargetRx Co., Ltd., priority 2023, dated 2025)
